Read-outs that look alike come from different tables or passages of the source.
Columns and labels:
Assay type in all cases: cell-based
IKZF2 [1] = experiment: GFP-IKZF2 cellular degradation assay (eGFP fusion/mCherry reporter, Flip-In 293 cells); details: Flip-In 293 cells stably expressing IKZF2 GFP fusion with mCherry reporter, 5 h
Experimental: IKZF1A and IKZF2A were subcloned into mammalian pcDNA5/FRT Vector (Ampicillin and Hygromycin B resistant) modified to contain MCS-eGFP-P2A-mCherry. Stable cell lines expressing eGFP-protein fusion and mCherry reporter were generated using Flip-In 293 system. Plasmid (0.3 μg) and pOG44 (4.7 μg) DNA were preincubated in 100 μL of Opti-MEM™ I (Gibco™, Life Technologies™) media containing 0.05 mg/mL Lipofectamine™ 2000 (Invitrogen™) for 20 min and added to Flip-In 293 cells containing 1.9 mL of DMEM media (Gibco™, Life Technologies™) per well in a 6-well plate format (Falcon, 353046). Cells were propagated for 48 h and were then transferred into a 10 cm^2 plate (Corning, 430165) in DMEM media containing 50 μg/mL of Hygromycin B (REF 10687010, Invitrogen™) as a selection marker. Following 2-3 passage cycle, FACS (FACSAria™ II, BD) was used to enrich for cells expressing eGFP and mCherry.
(§1) Cells stably expressing the IKZF1A, or IKZF2A GFP fusions with mCherry reporter were seeded at 30-50% confluency in 384-well plates with 50 μL FluoroBrite™ DMEM media (Thermo Fisher Scientific™ A18967) containing 10% FBS per well a day before compound treatment. Compound titrations were dispensed using a D300e Digital Dispenser (HP), normalized to 0.5% DMSO, and incubated with cells for 5 hours.
(§2) The assay plate was imaged immediately using an Acumen High Content Imager (TTP Labtech) with 488 nm and 561 nm lasers in […] per well format. The resulting images were analyzed using CellProfiler (Carpenter et al., Genome Biol. 2006, 7:R100). A series of image analysis steps (‘image analysis pipeline’) was constructed. First, the red and green channels were aligned and cropped to target the middle of each well (to avoid analysis of heavily clumped cells at the edges), and a background illumination function was calculated for both red and green channels of each well individually and subtracted to correct for illumination variations across the 384-well plate from various sources of error. An additional step was then applied to the green channel to suppress the analysis of large auto fluorescent artifacts and enhance the analysis of cell specific fluorescence by way of selecting for objects under a given size, 30 A.U., and with a given shape, speckles. mCherry-positive cells were then identified in the red channel filtering for objects between 8-60 pixels in diameter and using intensity to distinguish between clumped objects. The green channel was then segmented into GFP positive and negative areas and objects were labeled as GFP positive if at least 40% of it overlapped with a GFP positive area. The fraction of GFP-positive cells/mCherry-positive cells in each well was then calculated, and the green and red images were rescaled for visualization. The concentrations that lead to half degradation at 5 h (DC50, 5h) were calculated using the nonlinear fit variable slope model (GraphPad Software).

IKZF1 [2] = target: T1, IKZF1 (Homo sapiens, UniProt Q13422+Q96SW2); experiment: HiBit-IKZF1 degradation assay in Molt4 cells
T1 construct: knocked into the endogenous IKZF2 or IKZF1 locus of Molt4 cells; endogenous in cells; host or cells: Molt4 (CRISPR/Cas9 HiBit knock-in)
Experimental: (§3) The HiBit tag was knocked into the endogenous IKZF2 or IKZF1 locus of Molt4 cells to generate a HiBit-IKZF2 or HiBit-IKZF1 fusion proteins via CRISPR/Cas9 gene editing. Cells were then treated with a 12 point concentration curve of the indicated compounds, and luminescence (corresponding to Helios abundance) was detected after 6 hours using the Nano-Glo® HiBit Lytic Detection system (Promega™). The concentration necessary to achieve 50% degradation (DC50) was calculated using Prism (GraphPad).

IKZF2 [3] = target: T2, IKZF2 (Homo sapiens, UniProt Q96SW2+Q9UKS7); experiment: HiBit-IKZF2 degradation assay in Molt4 cells
T2 construct: knocked into the endogenous IKZF2 or IKZF1 locus of Molt4 cells; endogenous in cells; host or cells: Molt4 (CRISPR/Cas9 HiBit knock-in)
Experimental: as §3

IKZF1 [4] = target: T3, IKZF1 (Homo sapiens, UniProt Q13422); experiment: GFP-IKZF1 cellular degradation assay (eGFP fusion/mCherry reporter, Flip-In 293 cells)
T3 construct: expressed in transfected cells
Experimental: IKZF1A and IKZF2A were subcloned into mammalian pcDNA5/FRT Vector (Ampicillin and Hygromycin B resistant) modified to contain MCS-eGFP-P2A-mCherry. […] Following 2-3 passage cycle, FACS (FACSAria™ II, BD) was used to enrich for cells expressing eGFP and mCherry.
as §1
as §2, with “The resulting images were analyzed using CellProfiler (Carpenter et al., Genome Biol. 2006, 7:R100).” left out

Helios = target: T4, Helios (Homo sapiens, UniProt Q96SW2+Q9UKS7); experiment: Degradation in Jurkat cells (immunoblot); details: 4 hours, indicated concentrations
T4 construct: Immunoblots for Ikaros, Helios, and Actin from wildtype Jurkat cells; endogenous in cells; host or cells: wild-type Jurkat cells
Experimental: Cells were lysed in M-PER® buffer (Thermo Scientific) containing protease/phosphatase inhibitor cocktail (Roche). Protein concentration was measured using a BCA assay (Pierce™). Equivalent amounts of each sample were loaded on 4-12% Bis-Tris gels (Invitrogen™), transferred to nitrocellulose membranes, and immunoblotted with the indicated antibodies. IRDye®800-labeled goat anti-rabbit IgG and IRDye®680-labeled goat anti-mouse IgG (LI-COR®) secondary antibodies were purchased from LI-COR®, and membranes were detected on an Odyssey® detection system (LI-COR® Biosciences).
Immunoblots for Ikaros, Helios, and Actin from wildtype Jurkat cells treated with compound 36 or 65 for 4 hours at the indicated concentrations were generated (FIG. 1).

[5] = read-out: IKZF1 DC50; Molt4 cells with endogenous HiBit-IKZF1 knock-in, 6 hours, Nano-Glo HiBit luminescence
[6] = read-out: IKZF2 DC50; Molt4 cells with endogenous HiBit-IKZF2 knock-in, 6 hours, Nano-Glo HiBit luminescence
[7] = read-out: GFP IKZF1 DC50; Flip-In 293 cells stably expressing IKZF1 GFP fusion with mCherry reporter, 5 h
[8] = Molt4 cells with endogenous HiBit-IKZF1 knock-in, 6 hours, Nano-Glo HiBit luminescence; read-out: IKZF1 DC50
[9] = Molt4 cells with endogenous HiBit-IKZF2 knock-in, 6 hours, Nano-Glo HiBit luminescence; read-out: IKZF2 DC50
[10] = Flip-In 293 cells stably expressing IKZF1 GFP fusion with mCherry reporter, 5 h; read-out: GFP IKZF1 DC50

T2 sequence (Q9UKS7 whole entry): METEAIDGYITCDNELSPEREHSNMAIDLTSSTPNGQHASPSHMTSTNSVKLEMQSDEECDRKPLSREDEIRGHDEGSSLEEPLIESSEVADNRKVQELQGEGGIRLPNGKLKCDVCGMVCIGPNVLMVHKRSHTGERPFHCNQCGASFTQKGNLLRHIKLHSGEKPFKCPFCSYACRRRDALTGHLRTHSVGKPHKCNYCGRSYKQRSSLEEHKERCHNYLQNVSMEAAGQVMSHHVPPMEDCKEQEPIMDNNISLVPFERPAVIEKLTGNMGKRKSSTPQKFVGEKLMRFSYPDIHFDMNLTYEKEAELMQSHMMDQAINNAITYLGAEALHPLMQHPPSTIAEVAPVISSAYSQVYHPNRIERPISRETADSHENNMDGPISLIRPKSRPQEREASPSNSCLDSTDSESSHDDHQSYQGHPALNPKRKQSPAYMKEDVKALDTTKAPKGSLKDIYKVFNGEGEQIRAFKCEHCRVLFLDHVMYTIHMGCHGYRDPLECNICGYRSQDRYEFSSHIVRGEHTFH
T2 sequence (Q96SW2 whole entry): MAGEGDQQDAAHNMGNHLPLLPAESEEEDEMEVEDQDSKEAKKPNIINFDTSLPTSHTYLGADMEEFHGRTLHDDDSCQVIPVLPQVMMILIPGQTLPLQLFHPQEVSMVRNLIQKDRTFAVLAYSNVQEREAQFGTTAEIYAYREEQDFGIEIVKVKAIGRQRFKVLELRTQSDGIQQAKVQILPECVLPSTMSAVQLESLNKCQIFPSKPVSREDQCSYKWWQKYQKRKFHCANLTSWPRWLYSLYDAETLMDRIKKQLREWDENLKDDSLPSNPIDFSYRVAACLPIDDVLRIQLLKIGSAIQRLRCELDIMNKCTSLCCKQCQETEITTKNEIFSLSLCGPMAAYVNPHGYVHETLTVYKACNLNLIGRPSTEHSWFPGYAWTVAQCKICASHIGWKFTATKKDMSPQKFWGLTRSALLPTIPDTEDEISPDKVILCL
T2 sequence (Q16531 whole entry partner): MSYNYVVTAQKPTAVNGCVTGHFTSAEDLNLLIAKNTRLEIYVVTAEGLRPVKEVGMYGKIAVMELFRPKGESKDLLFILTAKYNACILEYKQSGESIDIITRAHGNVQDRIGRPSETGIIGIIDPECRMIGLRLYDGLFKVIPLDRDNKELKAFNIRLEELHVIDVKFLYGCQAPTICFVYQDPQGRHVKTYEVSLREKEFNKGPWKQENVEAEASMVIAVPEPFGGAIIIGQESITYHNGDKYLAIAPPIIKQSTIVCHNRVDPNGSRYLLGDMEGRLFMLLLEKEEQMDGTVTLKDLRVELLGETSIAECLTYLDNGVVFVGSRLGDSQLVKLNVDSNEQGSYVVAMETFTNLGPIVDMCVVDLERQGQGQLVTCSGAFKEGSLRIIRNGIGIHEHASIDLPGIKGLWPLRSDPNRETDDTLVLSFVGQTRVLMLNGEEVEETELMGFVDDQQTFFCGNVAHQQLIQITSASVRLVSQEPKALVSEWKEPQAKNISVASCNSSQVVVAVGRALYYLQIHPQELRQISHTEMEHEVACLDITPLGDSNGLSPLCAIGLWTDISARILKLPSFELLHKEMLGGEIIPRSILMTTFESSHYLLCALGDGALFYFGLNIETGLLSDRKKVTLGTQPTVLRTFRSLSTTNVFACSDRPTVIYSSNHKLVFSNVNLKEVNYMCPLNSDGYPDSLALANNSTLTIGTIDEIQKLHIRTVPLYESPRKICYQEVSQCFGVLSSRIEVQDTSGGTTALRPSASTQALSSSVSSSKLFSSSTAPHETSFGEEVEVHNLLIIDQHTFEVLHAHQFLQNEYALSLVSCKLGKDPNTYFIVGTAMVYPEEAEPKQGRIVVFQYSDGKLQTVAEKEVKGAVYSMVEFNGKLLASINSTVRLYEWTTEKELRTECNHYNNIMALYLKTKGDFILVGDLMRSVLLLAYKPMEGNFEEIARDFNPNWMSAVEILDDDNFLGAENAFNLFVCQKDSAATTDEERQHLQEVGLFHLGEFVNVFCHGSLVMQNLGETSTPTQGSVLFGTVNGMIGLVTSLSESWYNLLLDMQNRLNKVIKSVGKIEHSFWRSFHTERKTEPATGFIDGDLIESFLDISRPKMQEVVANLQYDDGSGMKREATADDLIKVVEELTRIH
T1 sequence (Q13422 whole entry): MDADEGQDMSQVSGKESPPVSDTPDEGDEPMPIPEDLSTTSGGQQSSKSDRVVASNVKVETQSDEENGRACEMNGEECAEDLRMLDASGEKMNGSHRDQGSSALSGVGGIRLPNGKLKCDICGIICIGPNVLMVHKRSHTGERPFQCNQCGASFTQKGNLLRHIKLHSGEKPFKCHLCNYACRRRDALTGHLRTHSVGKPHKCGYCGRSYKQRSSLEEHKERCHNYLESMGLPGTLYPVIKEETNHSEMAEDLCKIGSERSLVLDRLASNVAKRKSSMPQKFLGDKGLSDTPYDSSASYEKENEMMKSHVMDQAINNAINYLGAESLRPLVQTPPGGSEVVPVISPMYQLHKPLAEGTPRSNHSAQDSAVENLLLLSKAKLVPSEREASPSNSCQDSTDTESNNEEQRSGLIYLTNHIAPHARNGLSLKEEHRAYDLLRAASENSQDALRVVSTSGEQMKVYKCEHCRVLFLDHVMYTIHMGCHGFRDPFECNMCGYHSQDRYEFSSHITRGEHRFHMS
T1 sequence (Q96SW2 whole entry): as the sequence (Q96SW2 whole entry) above
T1 sequence (Q16531 whole entry partner): as the sequence (Q16531 whole entry partner) above
T3 sequence (Q13422 83-213 isoform Q13422-7 limits assumed): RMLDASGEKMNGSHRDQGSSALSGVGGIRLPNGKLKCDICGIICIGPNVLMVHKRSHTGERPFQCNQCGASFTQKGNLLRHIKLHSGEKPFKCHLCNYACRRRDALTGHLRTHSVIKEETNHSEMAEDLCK
T3 sequence (Q96SW2 whole entry partner, the tested form may be a part): as the sequence (Q96SW2 whole entry) above
T3 sequence (Q16531 whole entry partner, the tested form may be a part): as the sequence (Q16531 whole entry partner) above
T4 sequence (Q9UKS7 whole entry): as the sequence (Q9UKS7 whole entry) above
T4 sequence (Q96SW2 whole entry): as the sequence (Q96SW2 whole entry) above
T4 sequence (Q16531 whole entry partner): as the sequence (Q16531 whole entry partner) above

| Compound | DC50 (IKZF2 [1]) | DC50 (IKZF1 [2]; [5]) | DC50 (IKZF2 [3]; [6]) | DC50 (IKZF1 [4]; [7]) | DC50 (IKZF1 [2]; [8]) | DC50 (IKZF2 [3]; [9]) | DC50 (IKZF1 [4]; [10]) | Helios degradation (immunoblot, FIG. 1) (Helios) |
| --- | --- | --- | --- | --- | --- | --- | --- | --- |
| CC(C)(NCCc1ccc(C(F)(F)F)c(Cl)c1)c1cccc(NC2=CC(=O)N(C3CCC(=O)NC3=O)C2=O)c1 (stereo not shown) [Compound 66, 3-(3-((3-(2-((3-chloro-4-(trifluoromethyl)phenethyl)amino)propan-2-yl)phenyl)amino)-2,5-dioxo-2,5-dihydro-1H-pyrrol-1-yl)piperidine-2,6-dione] | 1.2 nM | 3.8 nM | 2.3 nM | 1.1 nM |  |  |  |  |
| CN(CCc1ccc(C(F)(F)F)c(Cl)c1)C(C)(C)c1cccc(NC2=CC(=O)N(C3CCC(=O)NC3=O)C2=O)c1 (stereo not shown) [Compound 67, 3-(3-((3-(2-((3-chloro-4-(trifluoromethyl)phenethyl)(methyl)amino)propan-2-yl)phenyl)-amino)-2,5-dioxo-2,5-dihydro-1H-pyrrol-1-yl)piperidine-2,6-dione] | 12 nM |  |  |  | 47 nM | 25 nM | 11 nM |  |
| CCC(NCCc1ccc(C(F)(F)F)c(Cl)c1)c1cccc(NC2=CC(=O)N(C3CCC(=O)NC3=O)C2=O)c1 (stereo not shown) [Compound 60, 3-(3-((3-(1-((3-chloro-4-(trifluoromethyl)phenethyl)-amino)propyl)phenyl)amino)-2,5-dioxo-2,5-dihydro-1H-pyrrol-1-yl)piperidine-2,6-dione] | 6 nM | 240 nM | 42 nM | 18 nM |  |  |  |  |
| CN(C)C(CC(=O)Nc1cccc(C(F)(F)F)c1)c1cccc(NC2=CC(=O)N(C3CCC(=O)NC3=O)C2=O)c1 (stereo not shown) [Compound 36, 3-(dimethylamino)-3-(3-((1-(2,6-dioxopiperidin-3-yl)-2,5-dioxo-2,5-dihydro-1H-pyrrol-3-yl)amino)phenyl)-N-(3-(trifluoromethyl)phenyl)propanamide] | 2.3 nM |  |  |  | 15 nM | 2.5 nM | 5.4 nM | Helios degradation |
| CC(C)(NCCc1cccc(C(F)(F)F)c1)c1cccc(NC2=CC(=O)N(C3CCC(=O)NC3=O)C2=O)c1 (stereo not shown) [Compound 65, 3-(2,5-dioxo-3-((3-(2-((3-(trifluoromethyl)phenethyl)amino)propan-2-yl)phenyl)amino)-2,5-dihydro-1H-pyrrol-1-yl)piperidine-2,6-dione] | 3.6 nM | 18 nM | 17 nM | 5.1 nM |  |  |  | Helios degradation |

From patent US20230192644A1, “PIPERIDINE-2,6-DIONES AS SMALL MOLECULE DEGRADERS OF HELIOS AND METHODS OF USE” (DANA-FARBER CANCER INSTITUTE, INC., priority 2020, published 2023)
